From patent publication US20240034731A1, “AZA-QUINAZOLINE COMPOUNDS AND METHODS OF USE” (Iambic Therapeutics, Inc., priority 2022, published 2024) come the findings set out here.

Assay [1] deals with CDK1/Cyclin B1 (Homo sapiens (Human), UniProt P06493). Description: CDK1/Cyclin B1 ADP-Glo Kinase Assay. It is filed as biochemical. Put shortly: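 ADP-Glo luminescent readout of ADP production, with IC50 fitted by a four-parameter equation to fractional velocity against inhibitor concentration. Reaction started with ATP-containing substrate after a 30-minute enzyme–inhibitor pre-incubation and stopped after 90 minutes, both at room temperature.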
On the technique in general: ADP-Glo first removes unused ATP, then detects ADP through luciferase.

In assay [2] the target is CDK2/Cyclin E1 (Homo sapiens (Human), UniProt P24941). Briefly: CDK2/Cyclin E1 Full length ADP-Glo Kinase Assay. It is filed as biochemical. Conditions: 20 uM ATP, read-out: CDK2/ CyclinE1 IC50. Put shortly:
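ADP-Glo luminescence (ATP depletion, then ADP-to-light conversion) quantified kinase turnover after a 90 min room-temperature reaction started by ATP/substrate, following 30 min enzyme–inhibitor preincubation. Enzyme: full-length CDK2/cyclin E1; IC50 fitted with a four-parameter equation on fractional velocity.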

Assay [3] addresses CDK4/Cyclin D1 (Homo sapiens (Human), UniProt P11802). Description: CDK4/Cyclin D1 CHEF Assay (AQT0258 peptide). Conditions: 200 uM ATP, read-out: CDK4/ CyclinD1 AQT IC50. It is filed as biochemical. Put shortly: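 Sox-labelled peptide AQT0258 phosphorylation read as chelation-enhanced fluorescence (ex 360/em 485 nm) with Mg(II). Enzyme preincubated with inhibitor 30 min at 22°C, substrate added, 3 h at 22°C; IC50 from four-parameter fit of fractional velocity versus inhibitor concentration.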

Assay [4] has as its target CDK6/Cyclin D3 (Homo sapiens (Human), UniProt Q00534). Briefly: CDK6/Cyclin D3 ADP-Glo Kinase Assay. It is filed as biochemical. Conditions: 100 uM ATP, read-out: CDK6/ CyclinD3 IC50. The method, boiled down:
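ADP-Glo luminescence measured ADP produced by CDK6/Cyclin D3 in a 90-min room-temperature reaction started with ATP-containing substrate, after 30-min enzyme–inhibitor pre-incubation. Fractional velocity was plotted against inhibitor concentration and fitted to a four-parameter IC50 model.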

For assay [5], the system named is MCF-7 cells. Briefly: Cell Growth Inhibition, MCF-7 (CellTiterGlo, 6 days). The format is cell-based. As to conditions: Homo sapiens, MCF7, 144 h, MCF-7, 6-day treatment. Put shortly: (§1)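 IC50 from four-parameter, variable-slope fits of % growth inhibition, derived from CellTiterGlo 2.0 luminescence relative to control. Compounds, usually 10-10,000 nM in half-log steps, stayed 6 days at 37 °C, 5% CO2 with 500 MCF-7 or OVCAR-3 cells/well in 10% FBS RPMI.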
(In ATP-based viability assays light output follows the ATP content of the culture.)

In assay [6] the test system is OVCAR-3 cells. Briefly: Cell Growth Inhibition, OVCAR-3 (CellTiterGlo, 6 days). It is filed as cell-based. Conditions: Homo sapiens, 144 h, OVCAR-3, 6-day treatment. Put shortly:
as §1

Where [7] appears, read: ADP-Glo, 80 uM ATP, read-out: CDK1 Cyclin B1 IC50.

Read-outs that look alike come from different tables or passages of the source.

Sequence of CDK6/Cyclin D3 (Q00534 whole entry): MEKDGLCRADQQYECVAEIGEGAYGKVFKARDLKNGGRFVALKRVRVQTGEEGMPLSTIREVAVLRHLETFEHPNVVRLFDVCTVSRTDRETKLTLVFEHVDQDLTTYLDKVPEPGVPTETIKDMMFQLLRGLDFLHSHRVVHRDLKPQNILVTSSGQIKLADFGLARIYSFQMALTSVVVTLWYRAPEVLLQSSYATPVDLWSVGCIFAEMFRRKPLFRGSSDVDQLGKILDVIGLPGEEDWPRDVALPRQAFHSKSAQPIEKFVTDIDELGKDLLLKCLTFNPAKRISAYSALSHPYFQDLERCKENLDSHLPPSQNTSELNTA
Sequence of CDK6/Cyclin D3 (P30281 whole entry partner): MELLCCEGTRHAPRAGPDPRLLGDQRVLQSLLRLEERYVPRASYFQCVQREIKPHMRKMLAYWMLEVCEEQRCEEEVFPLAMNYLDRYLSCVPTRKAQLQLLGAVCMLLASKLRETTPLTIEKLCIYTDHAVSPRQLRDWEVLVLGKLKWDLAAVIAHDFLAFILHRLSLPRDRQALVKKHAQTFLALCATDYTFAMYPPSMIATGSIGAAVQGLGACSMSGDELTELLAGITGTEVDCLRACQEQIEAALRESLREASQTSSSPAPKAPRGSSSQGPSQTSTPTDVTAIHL
Sequence of CDK1/Cyclin B1 (P06493 whole entry): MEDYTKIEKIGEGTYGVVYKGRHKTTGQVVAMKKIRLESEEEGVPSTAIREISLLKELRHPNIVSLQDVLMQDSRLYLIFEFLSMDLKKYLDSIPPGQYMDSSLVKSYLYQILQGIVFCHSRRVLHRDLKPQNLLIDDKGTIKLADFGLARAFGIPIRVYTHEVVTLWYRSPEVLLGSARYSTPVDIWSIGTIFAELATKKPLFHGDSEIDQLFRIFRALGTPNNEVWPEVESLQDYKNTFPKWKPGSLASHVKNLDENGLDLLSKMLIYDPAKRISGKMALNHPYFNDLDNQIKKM
Sequence of CDK1/Cyclin B1 (P14635 whole entry partner): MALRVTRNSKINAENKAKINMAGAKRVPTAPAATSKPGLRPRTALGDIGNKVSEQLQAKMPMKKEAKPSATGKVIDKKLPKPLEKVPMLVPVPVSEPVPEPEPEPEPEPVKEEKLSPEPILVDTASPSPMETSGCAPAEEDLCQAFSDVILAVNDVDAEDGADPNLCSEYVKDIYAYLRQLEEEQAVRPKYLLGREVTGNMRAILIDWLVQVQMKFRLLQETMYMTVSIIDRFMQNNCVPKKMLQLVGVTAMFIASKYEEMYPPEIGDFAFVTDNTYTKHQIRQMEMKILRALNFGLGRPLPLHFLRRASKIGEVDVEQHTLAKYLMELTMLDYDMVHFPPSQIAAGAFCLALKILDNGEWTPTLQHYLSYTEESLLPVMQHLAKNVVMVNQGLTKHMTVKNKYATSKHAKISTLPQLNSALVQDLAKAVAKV
Sequence of CDK4/Cyclin D1 (P11802 whole entry): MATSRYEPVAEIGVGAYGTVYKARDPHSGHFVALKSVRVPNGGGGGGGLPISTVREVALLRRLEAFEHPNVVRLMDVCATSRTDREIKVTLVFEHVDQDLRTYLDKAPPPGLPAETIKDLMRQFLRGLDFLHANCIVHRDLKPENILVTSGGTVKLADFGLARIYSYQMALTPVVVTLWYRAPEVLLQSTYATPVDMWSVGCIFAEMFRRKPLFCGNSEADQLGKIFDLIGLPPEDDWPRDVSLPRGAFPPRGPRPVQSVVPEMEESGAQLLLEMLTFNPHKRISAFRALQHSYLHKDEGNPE
Sequence of CDK4/Cyclin D1 (P24385 whole entry partner): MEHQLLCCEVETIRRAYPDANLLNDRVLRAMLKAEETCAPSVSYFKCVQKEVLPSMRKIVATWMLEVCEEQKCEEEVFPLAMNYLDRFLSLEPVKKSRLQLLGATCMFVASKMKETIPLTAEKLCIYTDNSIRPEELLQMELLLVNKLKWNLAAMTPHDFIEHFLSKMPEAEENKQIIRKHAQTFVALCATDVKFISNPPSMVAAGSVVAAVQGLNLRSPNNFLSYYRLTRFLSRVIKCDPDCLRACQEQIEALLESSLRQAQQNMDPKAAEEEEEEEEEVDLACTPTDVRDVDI

In the case of `[2H]C([2H])([2H])N1CC2(CN(c3nc(C)cc4cnc(NC5CCN(S(=O)(=O)c6cnn(C)c6)CC5)nc34)CC2(F)F)C1` [Example 11, 8-(8,8-difluoro-2-(methyl-d3)-2,6-diazaspiro[3.4]octan-6-yl)-6-methyl-N-(1-((1-methyl-1H-pyrazol-4-yl)sulfonyl)piperidin-4-yl)pyrido[3,4-d]pyrimidin-2-amine], the IC50 in assay [1] was less than 200 nM; in assay [2], less than 200 nM; in assay [3], less than 200 nM; in assay [4], less than 200 nM; in assay [5], 500 to 2000 nM; in assay [6], 200 to 500 nM.
Consider `Cc1cc2cnc(NC3CCN(S(=O)(=O)C4CC4)CC3)nc2c(N2CC3(CNC3)C2)n1` [Compound 32, N-(1-(cyclopropylsulfonyl)piperidin-4-yl)-6-methyl-8-(2,6-diazaspiro[3.3]heptan-2-yl)pyrido[3,4-d]pyrimidin-2-amine], for which the IC50 is 500 to 2000 nM in assay [1] (setting [7]); less than 200 nM in assay [2]; less than 200 nM in assay [3]; less than 200 nM in assay [4]; 500 to 2000 nM in assay [5]; 500 to 2000 nM in assay [6].
Consider `Cc1cc2cnc(Nc3cc4c(cc3F)CN(S(C)(=O)=O)C4)nc2c(N2CC3(CCNC3)C2)n1` [Example 39, N-(6-fluoro-2-(methylsulfonyl)isoindolin-5-yl)-6-methyl-8-(2,6-diazaspiro [3.4]octan-2-yl)pyrido[3,4-d]pyrimidin-2-amine], for which the IC50 in assay [1] (setting [7]) is more than 2000 nM; in assay [2], less than 200 nM; in assay [3], 200 to 500 nM; in assay [4], more than 2000 nM; in assay [5], 500 to 2000 nM; in assay [6] it was more than 2000 nM.
For the molecule `Cc1cc2cnc(NC3CCN(S(C)(=O)=O)CC3)nc2c(N2CC3(CCC(=O)N3)C2)n1` [Compound 77, 2-(6-methyl-2-((1-(methylsulfonyl)piperidin-4-yl)amino)pyrido[3,4-d]pyrimidin-8-yl)-2,5-diazaspiro[3.4]octan-6-one], the IC50 in assay [1] (setting [7]) is 200 to 500 nM; in assay [2], less than 200 nM; in assay [3], less than 200 nM; in assay [4], less than 200 nM; in assay [5], more than 2000 nM; in assay [6], more than 2000 nM.
Consider `Cc1cc2cnc(NC3CCN(S(=O)(=O)C4(C)CC4)CC3)nc2c(C2CC(C)(O)C2)n1` (stereo not drawn) [Compound 63, 1-methyl-3-(6-methyl-2-((1-((1-methylcyclopropyl)sulfonyl)piperidin-4-yl)amino)pyrido[3,4-d]pyrimidin-8-yl)cyclobutan-1-ol], for which the IC50 in assay [1] (setting [7]) was more than 2000 nM; in assay [2], 200 to 500 nM; in assay [3] it was 500 to 2000 nM; in assay [4], more than 2000 nM; in assay [5], more than 2000 nM; in assay [6], more than 2000 nM.
With `Cc1cc2cnc(N[C@H]3CC[C@H](CN(C)C)CC3)nc2c(N2CCC3(C2)CC3(F)F)n1` (stereo partly drawn) [Compound 40, 8-(1,1-difluoro-5-azaspiro[2.4]heptan-5-yl)-N-((1r,4r)-4-((dimethylamino)methyl)cyclohexyl)-6-methylpyrido[3,4-d]pyrimidin-2-amine], the IC50 in assay [1] (setting [7]) was more than 2000 nM; in assay [2], less than 200 nM; in assay [3], less than 200 nM; in assay [4], less than 200 nM; in assay [5], 500 to 2000 nM; in assay [6], 500 to 2000 nM.
As for `O=S(=O)(CC1CCC1)N1CCC(Nc2ncc3cc(C(F)F)nc(N4CC5(CCNC5)C4)c3n2)CC1` [Compound 55, N-(1-((cyclobutylmethyl)sulfonyl)piperidin-4-yl)-6-(difluoromethyl)-8-(2,6-diazaspiro[3.4]octan-2-yl)pyrido[3,4-d]pyrimidin-2-amine], the IC50 in assay [1] (setting [7]) was less than 200 nM; in assay [2] it was less than 200 nM; in assay [3], less than 200 nM; in assay [4], less than 200 nM; in assay [5], 200 to 500 nM; in assay [6] it was 500 to 2000 nM.
Consider `Cc1cc2cnc(NC3CCN(S(C)(=O)=O)CC3)nc2c(C2CC(O)(C(F)F)C2)n1` (stereo not drawn) [Compound 93, 1-(difluoromethyl)-3-(6-methyl-2-((1-(methylsulfonyl)piperidin-4-yl)amino)pyrido[3,4-d]pyrimidin-8-yl)cyclobutan-1-ol], for which the IC50 in assay [1] (setting [7]) is less than 200 nM; in assay [2], less than 200 nM; in assay [3], less than 200 nM; in assay [4], less than 200 nM; in assay [5], 500 to 2000 nM; in assay [6], 500 to 2000 nM.
As for `Cc1cc2cnc(NC3CCN(S(=O)(=O)C4CC4)CC3)nc2c(N2CC(F)(F)C3(CNC3)C2)n1` [Example 62, N-(1-(cyclopropylsulfonyl)piperidin-4-yl)-8-(8,8-difluoro-2,6-diazaspiro[3.4]octan-6-yl)-6-methylpyrido[3,4-d]pyrimidin-2-amine], the IC50 is less than 200 nM in assay [1] (setting [7]); less than 200 nM in assay [2]; less than 200 nM in assay [3]; less than 200 nM in assay [4]; 500 to 2000 nM in assay [5]; 500 to 2000 nM in assay [6].
Turning to `Cc1cc2cnc(Nc3ccc(CS(C)(=O)=O)cc3)nc2c(N2CC(O)(C3CC3)C2)n1` [Compound 83, 3-cyclopropyl-1-(6-methyl-2-((4-((methylsulfonyl)methyl)phenyl)amino)pyrido[3,4-d]pyrimidin-8-yl)azetidin-3-ol], the IC50 in assay [1] (setting [7]) is 200 to 500 nM; in assay [2], less than 200 nM; in assay [3], less than 200 nM; in assay [4], less than 200 nM; in assay [5], more than 2000 nM; in assay [6], more than 2000 nM.
Take `Cc1cc2cnc(NC3CCN(S(C)(=O)=O)CC3)nc2c(N2CCC3(C2)CC(F)(F)C3)n1` [Compound 53, 8-(2,2-difluoro-6-azaspiro[3.4]octan-6-yl)-6-methyl-N-(1-(methylsulfonyl)piperidin-4-yl)pyrido[3,4-d]pyrimidin-2-amine]: the IC50 in assay [1] (setting [7]) is more than 2000 nM; in assay [2] it was less than 200 nM; in assay [3] it was less than 200 nM; in assay [4], less than 200 nM; in assay [5] it was more than 2000 nM; in assay [6], more than 2000 nM.
Turning to `Cc1cc2cnc(NC3CCN(S(=O)(=O)C4CC4)CC3)nc2c(N2CC3(CCNCC3(F)F)C2)n1` [Compound 61, N-(1-(cyclopropylsulfonyl)piperidin-4-yl)-8-(5,5-difluoro-2,7-diazaspiro[3.5]nonan-2-yl)-6-methylpyrido[3,4-d]pyrimidin-2-amine], the IC50 is less than 200 nM in assay [1] (setting [7]); less than 200 nM in assay [2]; less than 200 nM in assay [3]; less than 200 nM in assay [4]; 500 to 2000 nM in assay [5]; 500 to 2000 nM in assay [6].
In the case of `Cc1cc2cnc(NC3CCN(S(C)(=O)=O)CC3)nc2c(N2CCC3(CCC3(F)F)C2)n1` (stereo not drawn) [Compound 52, 8-(1,1-difluoro-6-azaspiro[3.4]octan-6-yl)-6-methyl-N-(1-(methylsulfonyl)piperidin-4-yl)pyrido[3,4-d]pyrimidin-2-amine], the IC50 in assay [1] (setting [7]) is less than 200 nM; in assay [2], less than 200 nM; in assay [3], less than 200 nM; in assay [4], less than 200 nM; in assay [5], more than 2000 nM; in assay [6] it was 500 to 2000 nM.
Consider `COCCN1CC2(CC(c3nc(C4CC4)cc4cnc(NC5CCN(S(=O)(=O)CC6CCC6)CC5)nc34)C2)C1` [Compound 80, N-(1-((cyclobutylmethyl)sulfonyl)piperidin-4-yl)-6-cyclopropyl-8-(2-(2-methoxyethyl)-2-azaspiro[3.3]heptan-6-yl)pyrido[3,4-d]pyrimidin-2-amine], for which the IC50 in assay [1] (setting [7]) was 500 to 2000 nM; in assay [2] it was less than 200 nM; in assay [3], less than 200 nM; in assay [4], less than 200 nM; in assay [5], more than 2000 nM; in assay [6] it was more than 2000 nM.
As for `Cc1cc2cnc(NC3CCN(S(C)(=O)=O)CC3)nc2c(N2CC3(C2)CC(C)(O)C3)n1` [Compound 79, 6-methyl-2-(6-methyl-2-((1-(methylsulfonyl)piperidin-4-yl)amino)pyrido[3,4-d]pyrimidin-8-yl)-2-azaspiro[3.3]heptan-6-ol], the IC50 in assay [1] (setting [7]) was 200 to 500 nM; in assay [2], less than 200 nM; in assay [3], less than 200 nM; in assay [4], 200 to 500 nM; in assay [5], more than 2000 nM; in assay [6], 500 to 2000 nM.
Take `Cc1cc2cnc(NC3CCN(S(=O)(=O)C4CC4)CC3)nc2c(N2CC(OC3CC3)C2)n1` [Compound 57, 8-(3-cyclopropoxyazetidin-1-yl)-N-(1-(cyclopropylsulfonyl)piperidin-4-yl)-6-methylpyrido[3,4-d]pyrimidin-2-amine]: the IC50 in assay [1] (setting [7]) was 200 to 500 nM; in assay [2], less than 200 nM; in assay [3], less than 200 nM; in assay [4] it was less than 200 nM; in assay [5], more than 2000 nM; in assay [6], more than 2000 nM.
